Reference: US10413583B2, “Synthetic substrates for enzymes that catalyze reactions of modified cysteines and related methods” (The University of Chicago, priority 2016, dated 2019)

What was measured:
Assay type in all cases: cell-based, human
HeLa cells = assay: Flow cytometry of DPP-3 in HeLa cells; details: 1 μM inhibitor, 5 μM DPP-3, 5 min
Method: (§1) Cells were plated on a 10 cm dish with 10 mL of DMEM/High Glucose (10% FBS, 1% P/S, L-Glutamine, Sodium pyruvate) 36-48 hours prior to the day of experiment and maintained at 37° C., 5% CO2 so as to obtain 80-90% confluency. Cells were washed with DPBS and trypsinized with 1 mL 0.05% Trypsin. 5 mL of DMEM/High Glucose (10% FBS, L-Glutamine, Sodium pyruvate) was added and cells were spun down at 1200 rpm for 3 min. Media was discarded and cells were resuspended in 5 mL of Live Cell Imaging Solution and again spun down at 1200 rpm for 3 min. The cells pellets obtained were resuspended in 3-5 mL of Live Cell Imaging Solution and divided into 500 μL aliquots. The aliquots were treated with either 0.2% DMSO carrier or 1 μM of PalmB/ML348 or 1 μM/5 μM of ML349 inhibitor. After 30 min of incubation at room temperature, 1 μL of 2.5 mM DPP-3 in DMSO was added to each aliquot for a final concentration of 5 μM, and the solutions were mixed. After 5 min incubation at room temperature, fluorescence signal in FITC channel was measured for 10000 cells (5000 for HeLa experiments) on a LSR-Fortessa 4-15 HTS (BD digital instrument, 488 nm laser with 530/30 nm filter for FITC; BD, Franklin Lakes, N.J., United States of America). For analyzing DPP2 in HEK293T cells, the aliquots were treated with either 0.2% DMSO carrier or 2 μM of PalmB, 5 or 20 μM of ML348/ML349 and then analyzed by the protocol as mentioned above. Data was analyzed by FlowJo software version 10.0.8. For comparison of A431 starved versus non-starved, parallel 10 cm dishes of A431 cells were plated in 10 mL of DMEM (high glucose, 10% FBS, 1% P/S), and grown for 36 h. The growth media was removed, and replaced by 10 mL of either DMEM (High glucose) with 10% FBS to maintain “growth” conditions, or DMEM (High glucose) without FBS respectively for “starvation” conditions, and incubated for 14 h. After trypsinization, both plates were treated with 5 mL of DMEM (high glucose) for spinning the cells down, and further processing and analysis were performed as described above by flow cytometry.

MDA-MB-231 cells = assay: Flow cytometry of DPP-3 in MDA-MB-231 cells; details: MDA-MF-231 as printed; 1 μM inhibitor; 5 μM DPP-3, 5 min
Method: as §1

HEK293T cells = assay: Live cell fluorescence imaging and flow cytometry of DPP-2 and DPP-3 in HEK293T cells; details: for effect of inhibitor on DPP-3 signal: 1 μM PalmB, 1 μM ML348, 1 or 5 μM ML349 (FIGS. 10, 11)
Method: HEK293T (650,000 cells per dish) cells were plated with 1.5 mL of Dulbecco's Modified Eagle Medium (DMEM) (High Glucose, 10% fetal bovine serum (FBS)) in a 35 mm glass bottom dish (D35-10-1.5-N; Cellvis, Mountain View, Calif., United States of America) 24 hrs prior to imaging. 30 min before the addition of the DPP probe, the cell culture media was removed and cells were washed with 1 mL of Delbecco's phosphate-buffered saline (DPBS). The media was then replaced with 1 mL of DMEM containing 1 μM Hoechst 33342 and either 0.1% DMSO carrier as a control, 1 or 2 μM Palm B, 0.1, 1.0, or 5 μM ML348, and incubated for 30 min at 37° C. and 5% CO2. The media was removed, the cells were washed with 1 mL of Live Cell Imaging Solution (Thermo Fisher Scientific, Waltham, Mass., United States of America), and 1 mL of 1 μM DPP-2 or DPP-3 in Live Cell Imaging Solution was added to each plate. For ML348 0.1, 1.0, or 5 μM was added along with DPP-2 or DPP-3. After incubation for 15 min at 37° C. and 5% CO2, images were obtained on an inverted epi-fluorescence microscope (Olympus IX83; Olympus Corporation, Tokyo, Japan) attached with EMCCD camera (Photometrics EVOLVE™ Delta; Photometrics, Tucson, Ariz., United States of America) with 40× oil objective (N/A 1.3) for DPP-2 (excitation filter 500/20, dichroic chroma 89007, emission filter 535/30, exposure time 200 ms, EM gain 25), Hoechst 33342: (excitation filter 402/15, emission filter 455/50, dichroic chroma 89013, exposure time 30 ms, EM gain 25), and brightfield (exposure time 5 ms, EM gain 5), and for DPP-3 (exposure time 500 ms, EM gain 150), Hoechst 33342: (exposure time 30 ms, EM gain 25), and brightfield (exposure time 20 ms, EM gain 5). Analyses were performed in ImageJ. For data analysis, the average fluorescence intensity per image in each experimental condition was obtained by selecting regions of interest (ROIs) in the brightfield image. For display, the data were normalized to the average fluorescence intensity of the control conditions. Each experiment was repeated at least three separate times with identical results.
Cells were plated on a 10 cm dish with 10 mL of DMEM/High Glucose (10% FBS, 1% P/S, L-Glutamine, Sodium pyruvate) 36-48 hours prior to the day of experiment and maintained at 37° C., 5% CO2 so as to obtain 80-90% confluency. Cells were washed with DPBS and trypsinized with 1 mL 0.05% Trypsin. 5 mL of DMEM/High Glucose (10% FBS, L-Glutamine, Sodium pyruvate) was added and cells were spun down at 1200 rpm for 3 min. Media was discarded and cells were resuspended in 5 mL of Live Cell Imaging Solution and again spun down at 1200 rpm for 3 min. The cells pellets obtained were resuspended in 3-5 mL of Live Cell Imaging Solution and divided into 500 μL aliquots. The aliquots were treated with either 0.2% DMSO carrier or 1 μM of PalmB/ML348 or 1 μM/5 μM of ML349 inhibitor. After 30 min of incubation at room temperature, 1 μL of 2.5 mM DPP-3 in DMSO was added to each aliquot for a final concentration of 5 μM, and the solutions were mixed. After 5 min incubation at room temperature, fluorescence signal in FITC channel was measured for 10000 cells (5000 for HeLa experiments) on a LSR-Fortessa 4-15 HTS (BD digital instrument, 488 nm laser with 530/30 nm filter for FITC; BD, Franklin Lakes, N.J., United States of America). For analyzing DPP2 in HEK293T cells, the aliquots were treated with either 0.2% DMSO carrier or 2 μM of PalmB, 5 or 20 μM of ML348/ML349 and then analyzed by the protocol as mentioned above. Data was analyzed by FlowJo software version 10.0.8. For comparison of A431 starved versus non-starved, parallel 10 cm dishes of A431 cells were plated in 10 mL of DMEM (high glucose, 10% FBS, 1% P/S), and grown for 36 h. The growth media was removed, and replaced by 10 mL of either DMEM (High glucose) with 10% FBS to maintain “growth” conditions, or DMEM (High glucose) without FBS respectively for “starvation” conditions, and incubated for 14 h. […]

## CCCCCCCCCC[C@@H]1C(=O)O[C@H]1CCc1ccc(OC)c(OC)c1 [PalmB, palmostatin B]
HeLa cells
  effect of inhibitor on depalmitoylation signal measured by DPP-3: knocks down the depalmitoylation signal
MDA-MB-231 cells
  effect of inhibitor on depalmitoylation signal measured by DPP-3: knocks down the depalmitoylation signal
HEK293T cells
  effect of inhibitor on DPP-3 signal: lower amounts of PalmB or ML348 were needed to perturb the signal
HEK293T cells; 2 μM inhibitor
  effect of inhibitor on DPP-2 fluorescent signal: perturbed

## COc1ccc(N2CCN(C(=O)c3cc4c(s3)-c3ccccc3S(=O)(=O)C4)CC2)cc1 [ML349]
HEK293T cells
  effect of inhibitor on DPP-3 signal: not substantially perturbed
HEK293T cells; 5 μM inhibitor
  effect of inhibitor on DPP-2 fluorescent signal: perturbed

## O=C(CN1CCN(C(=O)c2ccco2)CC1)Nc1cc(C(F)(F)F)ccc1Cl [ML348]
HeLa cells
  effect of inhibitor on depalmitoylation signal measured by DPP-3: knocks down the depalmitoylation signal
MDA-MB-231 cells
  effect of inhibitor on depalmitoylation signal measured by DPP-3: knocks down the depalmitoylation signal
HEK293T cells
  effect of inhibitor on DPP-3 signal: lower amounts of PalmB or ML348 were needed to perturb the signal
HEK293T cells; 5 μM inhibitor
  effect of inhibitor on DPP-2 fluorescent signal: perturbed
